Structures can show the parent of a compound that is named as a salt.
Target: T1, Ros1 (Homo sapiens, UniProt P08922)
T1 construct: purchased Reaction Biology Corp. (contract assay)
Assay: Kinase inhibitory activity (33P-ATP filter binding, Reaction Biology Corp.)
Assay type: biochemical
Conditions: read-out: The half maximal inhibitory concentration IC50 on the kinases, Ros1
Description: (§1) The mixture was incubated at room temperature for 20 minutes. To the reaction mixture was added a certain concentration of ^33P-ATP to initiate the reaction, and then the mixture was incubated at room temperature for 120 minutes. The radioactivities of the reactants were determined by the method of filter binding. The final kinase activity was expressed as the ratio of the remaining kinase activity in the test sample to the kinase activity in the DMSO control group. The dose-effect curve was fitted by GraphPad software and the IC50 was calculated.

T1 sequence (P08922 28-2347): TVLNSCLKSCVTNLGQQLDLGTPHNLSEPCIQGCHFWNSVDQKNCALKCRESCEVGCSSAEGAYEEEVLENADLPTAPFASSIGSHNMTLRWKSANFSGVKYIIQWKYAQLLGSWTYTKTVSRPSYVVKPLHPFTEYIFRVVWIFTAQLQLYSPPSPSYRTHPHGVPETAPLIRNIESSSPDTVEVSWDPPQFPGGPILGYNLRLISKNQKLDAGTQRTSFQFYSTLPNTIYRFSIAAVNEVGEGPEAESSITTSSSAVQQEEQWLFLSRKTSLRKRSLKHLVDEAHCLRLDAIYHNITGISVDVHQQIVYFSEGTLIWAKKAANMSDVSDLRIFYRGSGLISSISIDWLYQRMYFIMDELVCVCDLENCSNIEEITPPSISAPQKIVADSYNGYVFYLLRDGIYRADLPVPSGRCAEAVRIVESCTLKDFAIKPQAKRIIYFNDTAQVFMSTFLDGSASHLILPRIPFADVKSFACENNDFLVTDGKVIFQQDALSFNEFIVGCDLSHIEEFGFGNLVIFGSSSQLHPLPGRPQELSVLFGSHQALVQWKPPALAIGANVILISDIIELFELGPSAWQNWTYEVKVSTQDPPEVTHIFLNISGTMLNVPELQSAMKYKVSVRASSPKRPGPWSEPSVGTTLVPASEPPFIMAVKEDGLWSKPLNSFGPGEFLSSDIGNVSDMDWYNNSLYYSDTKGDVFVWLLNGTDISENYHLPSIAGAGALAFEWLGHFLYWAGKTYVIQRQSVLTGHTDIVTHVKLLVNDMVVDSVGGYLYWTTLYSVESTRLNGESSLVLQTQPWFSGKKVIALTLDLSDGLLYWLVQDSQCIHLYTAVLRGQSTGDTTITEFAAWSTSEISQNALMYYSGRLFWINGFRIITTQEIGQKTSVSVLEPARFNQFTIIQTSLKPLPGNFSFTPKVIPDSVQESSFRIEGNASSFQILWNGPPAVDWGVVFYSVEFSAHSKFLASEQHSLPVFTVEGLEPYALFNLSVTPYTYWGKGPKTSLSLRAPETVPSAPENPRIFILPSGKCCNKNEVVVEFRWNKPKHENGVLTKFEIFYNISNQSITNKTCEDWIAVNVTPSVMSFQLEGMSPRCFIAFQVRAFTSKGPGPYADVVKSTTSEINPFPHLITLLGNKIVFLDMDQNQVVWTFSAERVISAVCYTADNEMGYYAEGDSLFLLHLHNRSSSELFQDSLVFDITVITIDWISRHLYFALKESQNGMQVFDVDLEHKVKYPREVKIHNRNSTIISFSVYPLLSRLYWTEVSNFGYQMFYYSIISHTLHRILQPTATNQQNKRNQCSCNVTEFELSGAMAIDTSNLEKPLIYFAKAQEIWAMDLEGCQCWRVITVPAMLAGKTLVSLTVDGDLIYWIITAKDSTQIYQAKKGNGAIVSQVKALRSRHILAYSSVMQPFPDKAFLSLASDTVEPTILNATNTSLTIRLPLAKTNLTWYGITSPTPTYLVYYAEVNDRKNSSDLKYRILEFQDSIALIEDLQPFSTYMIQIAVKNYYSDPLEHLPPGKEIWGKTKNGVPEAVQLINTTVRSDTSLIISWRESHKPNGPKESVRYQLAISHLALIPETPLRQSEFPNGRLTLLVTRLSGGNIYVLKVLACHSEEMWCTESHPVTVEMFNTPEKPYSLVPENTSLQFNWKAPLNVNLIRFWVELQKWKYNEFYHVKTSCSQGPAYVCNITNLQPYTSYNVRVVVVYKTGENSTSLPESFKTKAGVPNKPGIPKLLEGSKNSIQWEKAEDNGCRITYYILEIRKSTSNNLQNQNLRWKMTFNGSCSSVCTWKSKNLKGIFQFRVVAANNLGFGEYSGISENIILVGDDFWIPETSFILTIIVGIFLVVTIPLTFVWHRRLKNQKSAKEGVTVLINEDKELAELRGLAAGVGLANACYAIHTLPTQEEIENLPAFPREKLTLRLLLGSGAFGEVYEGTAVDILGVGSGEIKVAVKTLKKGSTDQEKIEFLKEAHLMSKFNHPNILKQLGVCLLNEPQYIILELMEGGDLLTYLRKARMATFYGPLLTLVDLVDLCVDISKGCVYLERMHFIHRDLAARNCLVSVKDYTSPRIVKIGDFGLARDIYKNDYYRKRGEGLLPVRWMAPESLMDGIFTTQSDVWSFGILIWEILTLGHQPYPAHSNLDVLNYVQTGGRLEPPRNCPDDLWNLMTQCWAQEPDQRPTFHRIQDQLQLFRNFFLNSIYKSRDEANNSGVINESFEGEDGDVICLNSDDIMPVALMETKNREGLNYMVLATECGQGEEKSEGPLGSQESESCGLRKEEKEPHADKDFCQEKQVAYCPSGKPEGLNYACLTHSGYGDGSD

Row | IC50 | SMILES
1 | 531 nM | C[C@H]1CNC(=O)c2cnn3ccc(nc23)N2OCC[C@H]2c2cc(F)cnc2O1 [WX005A]

Target: T2, TrkA (Homo sapiens, UniProt P04629)
T2 construct: purchased Reaction Biology Corp. (contract assay)
T2 sequence (P04629 33-796): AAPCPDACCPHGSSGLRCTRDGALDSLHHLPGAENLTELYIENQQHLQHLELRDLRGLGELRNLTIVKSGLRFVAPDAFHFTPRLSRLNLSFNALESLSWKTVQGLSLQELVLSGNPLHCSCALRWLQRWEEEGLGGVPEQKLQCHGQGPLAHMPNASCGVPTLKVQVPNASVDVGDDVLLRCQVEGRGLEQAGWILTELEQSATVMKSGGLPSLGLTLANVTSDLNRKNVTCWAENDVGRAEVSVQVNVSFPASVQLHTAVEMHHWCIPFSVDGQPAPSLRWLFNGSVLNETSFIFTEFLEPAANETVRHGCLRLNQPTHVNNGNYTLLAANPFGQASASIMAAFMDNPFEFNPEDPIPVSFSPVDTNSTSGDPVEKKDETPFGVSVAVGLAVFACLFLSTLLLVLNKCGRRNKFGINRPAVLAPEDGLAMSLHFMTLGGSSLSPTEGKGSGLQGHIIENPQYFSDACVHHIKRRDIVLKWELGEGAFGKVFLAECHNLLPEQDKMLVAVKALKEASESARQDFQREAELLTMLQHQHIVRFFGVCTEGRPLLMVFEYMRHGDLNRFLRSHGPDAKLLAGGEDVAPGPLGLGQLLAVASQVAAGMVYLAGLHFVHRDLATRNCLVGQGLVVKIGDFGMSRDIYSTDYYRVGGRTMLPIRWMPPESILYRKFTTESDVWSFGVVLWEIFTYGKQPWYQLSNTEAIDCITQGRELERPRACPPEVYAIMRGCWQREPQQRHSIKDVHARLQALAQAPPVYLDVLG
Assay: as above
Assay type: biochemical
Conditions: read-out: The half maximal inhibitory concentration IC50 on the kinases, TrkA
Description: as §1

Row | IC50 | SMILES
2 | 177 nM | CC1CCc2ncc(F)cc2C2CCON2c2ccn3ncc(c3n2)C(=O)N1 (centres unmarked) [WX001 hydrochloride]
3 | > 1000 nM | O=C1NC2(CC2)COc2ncc(F)cc2[C@@H]2CCON2c2ccn3ncc1c3n2 [WX002B]
4 | 4.37 nM | O=C1NC2(CC2)COc2ncc(F)cc2C2CCON2c2ccn3ncc1c3n2 (centres unmarked) [WX002]
5 | > 1000 nM | O=C1NC2(CC2)COc2ccc(F)cc2[C@@H]2CCON2c2ccn3ncc1c3n2 [WX003B]
6 | > 1000 nM | C[C@@H]1COc2ncc(F)cc2[C@@H]2CCON2c2ccn3ncc(c3n2)C(=O)N1 [WX004B]
7 | > 1000 nM | C[C@H]1CNC(=O)c2cnn3ccc(nc23)N2OCC[C@H]2c2cc(F)cnc2O1 [WX005A]
8 | > 1000 nM | O=C1NC2(COC2)COc2ncc(F)cc2[C@@H]2CCON2c2ccn3ncc1c3n2 [WX006B]
9 | 585 nM | O=C1N[C@@H]2CCC[C@@H]2Oc2ncc(F)cc2[C@@H]2CCON2c2ccn3ncc1c3n2 [WX007B]
10 | > 1000 nM | O=C1N[C@@H]2COC[C@@H]2Oc2ncc(F)cc2[C@@H]2CCON2c2ccn3ncc1c3n2 [WX008B]
11 | 85.1 nM | CN1C[C@@H]2Oc3ncc(F)cc3[C@H]3CCON3c3ccn4ncc(c4n3)C(=O)N[C@@H]2C1 [WX009A]
12 | > 1000 nM | CN1C[C@@H]2Oc3ncc(F)cc3[C@@H]3CCON3c3ccn4ncc(c4n3)C(=O)N[C@@H]2C1 [WX009B]
13 | > 1000 nM | O=C1N[C@@H]2COCC[C@@H]2Oc2ncc(F)cc2[C@@H]2CCON2c2ccn3ncc1c3n2 [WX010A]
14 | 33.6 nM | CN1CC[C@H]2NC(=O)c3cnn4ccc(nc34)N3OCC[C@@H]3c3cc(F)cnc3O[C@H]2C1 [WX011A]
15 | 270 nM | CN1CC[C@H]2NC(=O)c3cnn4ccc(nc34)N3OCC[C@H]3c3cc(F)cnc3O[C@H]2C1 [WX011B]

Target: T3, TrkA-G595R (Homo sapiens, UniProt P04629, G595R)
T3 construct: purchased Reaction Biology Corp. (contract assay)
T3 sequence (P04629 33-796 G595R): as the sequence (P04629 33-796) above, with G563R counted along it
Assay: as above
Assay type: biochemical
Conditions: read-out: The half maximal inhibitory concentration IC50 on the kinases, TrkA-G595R
Description: as §1

Row | IC50 | SMILES
16 | > 1000 nM | O=C1NC2(COC2)COc2ncc(F)cc2[C@@H]2CCON2c2ccn3ncc1c3n2 [WX006B]
17 | > 1000 nM | O=C1N[C@@H]2CCC[C@@H]2Oc2ncc(F)cc2[C@@H]2CCON2c2ccn3ncc1c3n2 [WX007B]
18 | > 1000 nM | O=C1N[C@@H]2COC[C@@H]2Oc2ncc(F)cc2[C@@H]2CCON2c2ccn3ncc1c3n2 [WX008B]

Target: T4, TrkC (Homo sapiens, UniProt Q16288)
T4 construct: purchased Reaction Biology Corp. (contract assay)
T4 sequence (Q16288 32-839): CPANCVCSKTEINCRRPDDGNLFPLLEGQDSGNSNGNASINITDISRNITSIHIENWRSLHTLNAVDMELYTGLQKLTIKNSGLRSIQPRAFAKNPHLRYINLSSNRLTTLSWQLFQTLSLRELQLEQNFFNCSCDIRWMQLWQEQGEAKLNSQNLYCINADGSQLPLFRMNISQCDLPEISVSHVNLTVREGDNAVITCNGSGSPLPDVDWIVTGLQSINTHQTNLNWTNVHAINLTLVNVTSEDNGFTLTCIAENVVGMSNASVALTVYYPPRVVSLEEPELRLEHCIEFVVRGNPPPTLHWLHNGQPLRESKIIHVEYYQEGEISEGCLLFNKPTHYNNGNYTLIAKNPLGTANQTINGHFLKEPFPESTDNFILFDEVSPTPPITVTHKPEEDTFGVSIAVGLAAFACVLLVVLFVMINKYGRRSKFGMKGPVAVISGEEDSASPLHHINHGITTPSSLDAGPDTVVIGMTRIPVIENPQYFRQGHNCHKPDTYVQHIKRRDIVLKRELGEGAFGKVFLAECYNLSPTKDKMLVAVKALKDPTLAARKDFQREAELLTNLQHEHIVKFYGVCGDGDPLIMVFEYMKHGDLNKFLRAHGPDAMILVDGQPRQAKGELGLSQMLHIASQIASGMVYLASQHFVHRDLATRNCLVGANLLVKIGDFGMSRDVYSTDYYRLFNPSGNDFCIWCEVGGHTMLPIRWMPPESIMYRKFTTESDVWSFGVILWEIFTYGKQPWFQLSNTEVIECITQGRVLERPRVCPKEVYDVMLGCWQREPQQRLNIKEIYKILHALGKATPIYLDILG
Assay: as above
Assay type: biochemical
Conditions: read-out: The half maximal inhibitory concentration IC50 on the kinases, TrkC
Description: as §1

Row | IC50 | SMILES
19 | 105 nM | C[C@@H]1COc2ncc(F)cc2[C@@H]2CCON2c2ccn3ncc(c3n2)C(=O)N1 [WX004B]
20 | 189 nM | C[C@H]1CNC(=O)c2cnn3ccc(nc23)N2OCC[C@H]2c2cc(F)cnc2O1 [WX005A]

Target: T5, ALK (Homo sapiens, UniProt Q9UM73)
T5 construct: purchased Reaction Biology Corp. (contract assay)
Assay: as above
Assay type: biochemical
Conditions: read-out: The half maximal inhibitory concentration IC50 on the kinases, ALK
Description: The inhibitory activities of the compounds on TrkA, TrkC, ALK, Ros1 and other kinases were determined by Reaction Biology Corp. To reaction buffer (20 mM Hepes (pH 7.5), 10 mM MgCl2, 1 mM EGTA, 0.02% Brij35, 0.02 mg/mL BSA, 0.1 mM Na3VO4, 2 mM DTT, 1% DMSO) were sequentially added a certain concentration of substrate, coenzyme factor, kinase and test compound (10 concentrations, 3-fold serial dilutions, DMSO at a final concentration of […]), and the mixture was mixed evenly. The mixture was incubated at room temperature for 20 minutes. To the reaction mixture was added a certain concentration of ^33P-ATP to initiate the reaction, and then the mixture was incubated at room temperature for 120 minutes. The radioactivities of the reactants were determined by the method of filter binding. The final kinase activity was expressed as the ratio of the remaining kinase activity in the test sample to the kinase activity in the DMSO control group. The dose-effect curve was fitted by GraphPad software and the IC50 was calculated.

Row | IC50 | SMILES
21 | > 1000 nM | C[C@H]1CNC(=O)c2cnn3ccc(nc23)N2OCC[C@H]2c2cc(F)cnc2O1 [WX005A]

Target: T6, Ba/F3 LMNA-NTRK1-WT stably transfected cell line (Homo sapiens, UniProt P04629)
T6 construct: fused on or other part: P02545 (Prelamin-A/C)
T6 sequence (P04629 whole entry, change not shown, the tested form may be a part): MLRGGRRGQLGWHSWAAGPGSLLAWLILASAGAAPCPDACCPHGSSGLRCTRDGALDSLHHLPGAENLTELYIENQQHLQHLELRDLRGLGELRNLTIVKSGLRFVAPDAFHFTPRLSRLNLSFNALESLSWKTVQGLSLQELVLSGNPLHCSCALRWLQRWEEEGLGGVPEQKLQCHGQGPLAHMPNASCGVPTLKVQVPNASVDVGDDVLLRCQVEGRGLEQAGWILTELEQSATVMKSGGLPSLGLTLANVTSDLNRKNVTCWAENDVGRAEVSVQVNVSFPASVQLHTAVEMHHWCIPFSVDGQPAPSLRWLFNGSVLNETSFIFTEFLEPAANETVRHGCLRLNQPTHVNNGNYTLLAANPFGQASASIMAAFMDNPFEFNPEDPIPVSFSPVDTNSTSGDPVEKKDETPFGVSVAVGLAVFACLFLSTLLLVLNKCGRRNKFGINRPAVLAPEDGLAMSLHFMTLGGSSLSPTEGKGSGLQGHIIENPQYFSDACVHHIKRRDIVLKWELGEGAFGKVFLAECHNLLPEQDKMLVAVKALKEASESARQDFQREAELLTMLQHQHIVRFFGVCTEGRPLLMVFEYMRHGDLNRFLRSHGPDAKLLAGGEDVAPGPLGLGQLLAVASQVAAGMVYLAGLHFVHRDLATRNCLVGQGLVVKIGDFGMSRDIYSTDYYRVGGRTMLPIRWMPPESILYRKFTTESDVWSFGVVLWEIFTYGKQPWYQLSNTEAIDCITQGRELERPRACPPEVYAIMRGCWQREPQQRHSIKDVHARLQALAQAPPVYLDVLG
Assay: Cell proliferation inhibition (CellTiter-Glo)
Assay type: cell-based
Conditions: 72 hours, read-out: The half maximal inhibitory concentration IC50 against cells, Ba/F3 LMNA-NTRK1-WT
Description: Adenosine Tri-Phosphate (ATP) is an energy carrier shared by various life activities in nature, and is the smallest unit of energy storage and transfer. The CellTiter-Glo™ cell viability detection kit uses luciferase as the detection substance, and luciferase requires the participation of ATP during the process of luminescence. CellTiter-Glo™ reagent is added to cell culture medium, and the luminescent intensity is measured. The luminescent signal is directly proportional to the amount of ATP in the system, and ATP is positively related to the number of living cells. Therefore, by using the CellTiter-Glo kit to detect ATP content, cell proliferation can be detected. In this assay, the cell line is Ba/F3 LMNA-NTRK1-WT stably transfected cell line, with 5000 cells/well.
IC50 Determination Process:
1. Cell Culture and Inoculation
a) the cells in the logarithmic growth phase were harvested, and counted with a platelet counter. Trypan blue exclusion method was used to detect cell viability to ensure the cell viability was no less than 90%.
b) the cell concentration was adjusted; 90 μL of cell suspension was added respectively into a 96-well plate.
c) the cells in the 96-well plates was cultured under conditions of 37° C., 5% CO2 and 95% humidity overnight.
2. Drug Dilution and Administration
a) 10-fold drug solutions were prepared, the highest concentration was 10 μM, 9 concentrations, 3-fold diluted (refer to Appendix I). 10 μL of each drug solution was added to each well of the 96-well plate seeded with the cells in triplicate.
b) the cells in the 96-well plate added with the drug were cultured under conditions of 37° C., 5% CO2 and 95% humidity for 72 hours, and then CTG (cell proliferation) was performed.
a) CellTiter-Glo™ reagent was thawed, and the cell plate was equilibrated at room temperature for 30 minutes.
b) CellTiter-Glo™ reagent of a same volume was added to each well;
c) the cell plate was shaken on an orbital shaker for 5 minutes to lyse the cells.
d) the cell plate was placed at room temperature for 20 minutes to stabilize the luminescent signal.
e) the luminescent intensity was read.
GraphPad Prism 5.0 software was used to analyze the data, nonlinear S-curve regression was used to fit the data to obtain dose-effect curve, and IC50 value was calculated therefrom.

Row | GI50 | SMILES
22 | 76.8 nM | CN1C[C@@H]2Oc3ncc(F)cc3[C@H]3CCON3c3ccn4ncc(c4n3)C(=O)N[C@@H]2C1 [WX009A]
23 | 39.7 nM | CN1CC[C@H]2NC(=O)c3cnn4ccc(nc34)N3OCC[C@@H]3c3cc(F)cnc3O[C@H]2C1 [WX011A]
